Reference: US20220087987A1, “A METHOD FOR TREATING SWI/SNF COMPLEX-DEFICIENT CANCERS COMPRISING GLUTATHIONE (GSH) METABOLIC PATHWAY INHIBITOR” (National Cancer Center, priority 2018, published 2022)
Read-outs that look alike come from different tables or passages of the source. Square brackets hold non-standard residues; d marks the D form. Peptide text beside a SMILES is read from it. * marks the point of attachment. Sta = CC(C)C[C@H](N)[C@@H](O)CC(=O)O; Isovaleryl = CC(C)CC(=O)*; Cbz = O=C(OCc1ccccc1)*; CH2Cl = ClC*

How the values were obtained:
ARID1A-KO HCT116 cells = assay: Drug library screen, cell viability (CellTiter-Glo); format: cell-based, human; design: key to Cell viability, KO: % viability relative to DMSO solvent-treated cells
Description: (§1) ARID1A-WT and ARID1A-KO HCT116 cancer cells were used for screening assays. […] Cell viability was assessed after 5 days using the CellTiter-Glo Luminescent Cell Viability Assay (Promega). Luminescence was measured using an Envision Multi-label plate reader (PerkinElmer). The luminescence reading was used to determine the cell viability relative to that of cells treated with solvent (DMSO). Candidate compounds were considered if viability of ARID1A-KO cells was less than […] was more than 80%.

ARID1A-WT HCT116 cells = assay: as above; format: cell-based, human; design: key to Cell viability, WT: % viability relative to DMSO solvent-treated cells
Description: as §1

[1] = HCT116 ARID1A-KO, 10 μM for 5 days, relative to cells treated with solvent (DMSO)
[2] = HCT116 ARID1A-WT, 10 μM for 5 days, relative to cells treated with solvent (DMSO)

| Compound | Cell viability, KO (ARID1A-KO HCT116 cells; [1]) | Cell viability, WT (ARID1A-WT HCT116 cells; [2]) | Cell viability, KO (ARID1A-KO HCT116 cells) | Cell viability, WT (ARID1A-WT HCT116 cells) |
| --- | --- | --- | --- | --- |
| C[n+]1ccc(-c2c3nc(c(-c4cc[n+](C)cc4)c4ccc([nH]4)c(-c4cc[n+](C)cc4)c4ccc([nH]4)c(-c4cc[n+](C)cc4)c4nc2C=C4)C=C3)cc1 [TMPyP4] | 32.37 | 19.35 | – | – |
| Nc1cccc(-c2cc3c(Oc4cccc(O)c4)ncnc3[nH]2)c1 [TWS119] | – | – | 23.39 | 30.07 |
| O=[N+]([O-])c1ccc(-c2nc(-c3ccc(F)cc3)c(-c3ccncc3)[nH]2)cc1 [PD169316] | 151.5532 | 161.5329 | – | – |
| CC(C)(C)n1nc(-c2ccc(Cl)cc2)c2c(N)ncnc21 [PP2] | 149.4142 | 121.2434 | – | – |
| O=c1cc(N2CCOCC2)oc2c(-c3ccccc3)cccc12 [LY294002] | 119.3969 | 127.2893 | – | – |
| CC1=NN(c2ccc(C(=O)O)cc2)C(=O)/C1=C\c1ccc(-c2cc(C)c(C)cc2[N+](=O)[O-])o1 [C646] | – | – | 115.173 | 93.09 |
| CC(C)n1nc(-c2cc3cc(O)ccc3[nH]2)c2c(N)ncnc21 [Torkinib] | 9.988 | 8.777 | – | – |
| O=C1C(Nc2ccccc2)=CC(=O)c2ncccc21 [LY 83583] | 4.788 | 4.357 | – | – |
| COc1nccc(-c2c(-c3ccc(F)cc3)ncn2C2CCC(O)CC2)n1 (stereo not shown) [SB239063] | 174.3691 | 118.4502 | – | – |
| CCCCCCCCCCCCCCCCCCc1ccc(C(=O)/C=C/C(=O)O)cc1 [OBAA] | 110.9715 | 199.8448 | – | – |
| CCOC(=O)[C@H]1O[C@@H]1C(=O)N[C@@H](CC(C)C)C(=O)NCCC(C)C [E-64d] | 100.5678 | 100.8821 | – | – |
| CC(C)(C)n1nc(-c2cccc3ccccc23)c2c(N)ncnc21 [PP1 analog] | 69.2339 | 76.55 | – | – |
| Cc1ccc(NC(=O)c2cccc(N(C)C)c2)cc1NC(=O)c1ccc(O)cc1 [ZM 336372] | 179.4192 | 121.6939 | – | – |
| COc1cc2c(cc1OC)-c1[nH]nc(Nc3cccc(F)c3)c1C2 | 12.89 | 5.928 | – | – |
| Cc1cn([C@H]2C[C@H](N=[N+]=[N-])[C@@H](CO)O2)c(=O)[nH]c1=O [AZT] | 60.27 | 71.38 | – | – |
| Cn1cc(/C=C2\C(=O)Nc3ccc(S(N)(=O)=O)cc32)c2ccccc21 [Syk inhibitor] | – | – | 91.09 | 58.62 |
| CC(C)C[C@H](NC(=O)CNC(=O)OCc1ccccc1)C(=O)N[C@@H](Cc1ccccc1)C(=O)CCl [Z-GLF-CMK] (Cbz-Gly-Leu-Phe-CH2Cl) | 4.8907 | 4.255 | – | – |
| Nc1ncnc2c1nc(Sc1ccc(Cl)cc1)n2[C@@H]1O[C@@H]2COP(O)(=S)O[C@H]2[C@H]1O (stereo partly shown) [Rp-8-CPT-cOMPS] | 135.7084 | 110.9572 | – | – |
| Nc1nc(Nc2ccc(S(N)(=O)=O)cc2)nn1C(=S)Nc1c(F)cccc1F [Cdk½ inhibitor III] | 18.12 | 8.59 | – | – |
| CC(C)(c1ccc(OCC2CO2)cc1)c1ccc(OCC2CO2)cc1 (stereo not shown) [BADGE] | 107.888 | 93.59 | – | – |
| Tamoxifen, citrate | 18.66 | 24.8 | – | – |
| O=Cc1ccc(N2CCOCC2)cc1O [IC60211] | 174.6736 | 131.0236 | – | – |
| CCNCCCNCCCCNCCCNCC [N1,N12-Diethylspermine (BESpm), N1,N12-Diethylspermine] | 37.8 | 32.23 | – | – |
| O=C1NC(=O)c2c1c1c3ccccc3n3c1c1c2c2ccccc2n1C1CCC3O1 [SB 218078] | 109.2807 | 101.994 | – | – |
| NC(=O)c1ccc2nc(-c3ccc(Oc4ccc(Cl)cc4)cc3)[nH]c2c1 [Chk2 inhibitor II] | 139.2543 | 104.0524 | – | – |

| Compound | Cell viability, KO (ARID1A-KO HCT116 cells; [1]) | Cell viability, WT (ARID1A-WT HCT116 cells; [2]) | Cell viability, KO (ARID1A-KO HCT116 cells) | Cell viability, WT (ARID1A-WT HCT116 cells) |
| --- | --- | --- | --- | --- |
| NC(=O)Nc1sc(-c2ccccc2)cc1C(N)=O [IKK-2 inhibitor VI] | 22.26 | 19.28 | – | – |
| COC(=O)CNC(=O)C(=O)OC [Dimethyloxalylglycine] | 119.9436 | 95.769 | – | – |
| Cc1[nH]c(/C=C2\C(=O)Nc3ccc(S(=O)(=O)N(C)c4cccc(Cl)c4)cc32)c(C)c1C(=O)N1CCN(C)CC1 [SU11274] | 82.98 | 71.94 | – | – |
| O=C(NCCCCCCNC(=O)ON=C1CCCCC1)ON=C1CCCCC1 [RHC80267] | 92.22 | 82.45 | – | – |
| Oc1ccc(-c2nc(-c3ccc(F)cc3)c(-c3ccncc3)[nH]2)cc1 [SB202190] | 191.0939 | 108.8022 | – | – |
| CC(C)CC(=O)N[C@H](C(=O)N[C@H](C(=O)N[C@@H](CC(C)C)[C@@H](O)CC(=O)N[C@@H](C)C(=O)N[C@@H](CC(C)C)[C@@H](O)CC(=O)O)C(C)C)C(C)C [Pepstatin A] (Isovaleryl-VV[Sta]A[Sta]-OH) | 126.4531 | 115.9467 | – | – |
| O=C1Nc2ccc3ncsc3c2/C1=C/c1cnc[nH]1 [PKR inhibitor] | – | – | 16.84 | 8.714 |
| O=C1C(SCCO)=C(SCCO)C(=O)c2ccccc21 [NSC95397] | 15.8033 | 41.93 | – | – |
| COc1ccc(Cn2ccc3ccc(C(=O)NO)cc32)cc1 [PCI-34051] | 72.3 | 71.67 | – | – |
| Nc1nc(OCc2ccccc2)c2nc[nH]c2n1 [Benzylguanine] | – | – | 105.1044 | 88.84 |
| CC(C)(C)c1cc(C=C(C#N)C#N)cc(Br)c1O [AG1024] | 183.5477 | 161.1636 | – | – |
| COc1ccc(S(=O)(=O)N(CCO)c2ccccc2CN(C)C/C=C/c2ccc(Cl)cc2)cc1 [KN93] | 23.47 | 20.89 | – | – |
| O=c1[nH]c2ccccc2n1C1CCN(Cc2ccc(-c3nc4cc5[nH]cnc5cc4nc3-c3ccccc3)cc2)CC1 | 124.843 | 84.5 | – | – |
| Clc1ccccc1CNCC1CCC(CNCc2ccccc2Cl)CC1 (stereo not shown) [AY 9944] | 50.15 | 31.41 | – | – |
| CCCC[C@@H](C)/C=C(C)/C=C(\C)C(=O)NC1=C[C@@](O)(/C=C/C=C/C=C/C(=O)NC2=C(O)CCC2=O)[C@@H]2O[C@@H]2C1=O [Manumycin A] | 52.57 | 61.22 | – | – |
| COC(=O)[C@@]1(OC)C[C@H]2O[C@]1(C)n1c3ccccc3c3c4c(c5c6ccccc6n2c5c31)C(=O)N(C)C4 [KT 5823] | 111.294 | 102.1181 | – | – |
| indirubin-3′-monoxime | 124.9767 | 105.9954 | – | – |
| N#CCCc1ccc2c(c1)-c1[nH]c3ccc([N+](=O)[O-])cc3c1CC(=O)N2 [Alsterpaullone, 2-cyanoethyl] | 14.55 | 6.82 | – | – |
| CN1C(=O)CN=C(c2ccc(Cl)cc2)c2cc(Cl)ccc21 [Ro 5-4864] | 98.27 | 92.88 | – | – |
| O=C1Nc2cc(Br)ccc2/C1=C1/Nc2ccccc2/C1=N\O [BIO] | 107.4068 | 87.19 | – | – |
| O=C1Nc2ccc(I)cc2/C1=C/c1cc(Br)c(O)c(Br)c1 [RAF1 kinase inhibitor I] | 164.7652 | 127.271 | – | – |
| Tunicamycin | 6.011 | 4.6969 | – | – |
| O=C(Nc1ccc([N+](=O)[O-])cc1O)Nc1ccccc1Br [SB 225002] | 8.056 | 5.2146 | – | – |
| Fc1ccc(Cl)cc1-c1nc(Nc2ccncc2)c2nccnc2n1 [SD208] | 78.9 | 73.72 | – | – |
| OCCn1cc(-c2cnc3nnn(Cc4ccc5ncccc5c4)c3n2)cn1 [PF-04217903] | 93.9615 | 86.5829 | – | – |
